Broadly, the IC50 is the concentration at which inhibition is half-maximal. Low values mean greater potency, high ones weaker potency.

The record followed here is ChEMBL document CHEMBL5465560, “Selectivity Literature for EUbOPEN Chemogenomic Library” (2024).

The target of assay [1] is Serine/threonine-protein kinase SIK3 (Homo sapiens) (UniProt Q9Y2K2). Put plainly: Selectivity interaction (LanthaScreen Eu Kinase Binding Assay) EUB0001632a SIK3. The following applies: at 10 µM. (In general: TR-FRET usually uses a lanthanide donor and a delayed reading to cut background.)
Serine/threonine-protein kinase SIK3 (Homo sapiens), sequence (Q9Y2K2 whole entry, looked up): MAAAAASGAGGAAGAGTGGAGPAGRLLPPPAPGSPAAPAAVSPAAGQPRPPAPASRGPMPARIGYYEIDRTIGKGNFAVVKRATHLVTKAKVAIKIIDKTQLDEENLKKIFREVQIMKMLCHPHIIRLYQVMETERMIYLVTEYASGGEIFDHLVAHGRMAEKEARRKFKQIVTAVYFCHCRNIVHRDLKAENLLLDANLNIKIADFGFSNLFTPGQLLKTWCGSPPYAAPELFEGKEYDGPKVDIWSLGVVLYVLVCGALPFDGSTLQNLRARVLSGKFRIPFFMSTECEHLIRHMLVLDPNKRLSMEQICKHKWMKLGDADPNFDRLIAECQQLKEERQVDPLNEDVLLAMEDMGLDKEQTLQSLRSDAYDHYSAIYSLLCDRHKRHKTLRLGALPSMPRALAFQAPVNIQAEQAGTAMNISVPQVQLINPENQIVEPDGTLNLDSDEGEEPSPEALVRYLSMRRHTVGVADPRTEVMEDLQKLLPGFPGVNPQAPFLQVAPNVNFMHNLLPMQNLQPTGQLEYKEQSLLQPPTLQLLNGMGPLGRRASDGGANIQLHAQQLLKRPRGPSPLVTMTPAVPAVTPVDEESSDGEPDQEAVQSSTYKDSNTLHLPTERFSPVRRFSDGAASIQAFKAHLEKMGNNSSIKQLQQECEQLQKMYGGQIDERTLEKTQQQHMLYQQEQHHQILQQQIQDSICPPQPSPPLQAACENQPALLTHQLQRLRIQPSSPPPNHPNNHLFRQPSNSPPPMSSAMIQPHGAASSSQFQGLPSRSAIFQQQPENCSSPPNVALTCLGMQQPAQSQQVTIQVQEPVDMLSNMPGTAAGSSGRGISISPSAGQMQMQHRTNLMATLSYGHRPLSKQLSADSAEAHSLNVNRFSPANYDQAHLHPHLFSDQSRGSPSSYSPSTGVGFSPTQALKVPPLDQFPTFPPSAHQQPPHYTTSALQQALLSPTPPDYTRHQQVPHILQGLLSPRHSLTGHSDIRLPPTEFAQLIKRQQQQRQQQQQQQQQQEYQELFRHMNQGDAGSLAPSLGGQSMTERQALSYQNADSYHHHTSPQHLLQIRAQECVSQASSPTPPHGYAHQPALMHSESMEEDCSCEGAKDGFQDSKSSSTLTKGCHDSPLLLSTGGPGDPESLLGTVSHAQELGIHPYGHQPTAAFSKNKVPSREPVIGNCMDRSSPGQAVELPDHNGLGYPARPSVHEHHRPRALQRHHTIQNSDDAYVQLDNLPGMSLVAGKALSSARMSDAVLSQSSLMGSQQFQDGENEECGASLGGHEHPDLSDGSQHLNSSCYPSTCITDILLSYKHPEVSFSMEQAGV
The target in assay [2] is T1, Interleukin-1 receptor-associated kinase 4 (Homo sapiens) (UniProt Q9NWZ3).
T1 sequence (whole entry): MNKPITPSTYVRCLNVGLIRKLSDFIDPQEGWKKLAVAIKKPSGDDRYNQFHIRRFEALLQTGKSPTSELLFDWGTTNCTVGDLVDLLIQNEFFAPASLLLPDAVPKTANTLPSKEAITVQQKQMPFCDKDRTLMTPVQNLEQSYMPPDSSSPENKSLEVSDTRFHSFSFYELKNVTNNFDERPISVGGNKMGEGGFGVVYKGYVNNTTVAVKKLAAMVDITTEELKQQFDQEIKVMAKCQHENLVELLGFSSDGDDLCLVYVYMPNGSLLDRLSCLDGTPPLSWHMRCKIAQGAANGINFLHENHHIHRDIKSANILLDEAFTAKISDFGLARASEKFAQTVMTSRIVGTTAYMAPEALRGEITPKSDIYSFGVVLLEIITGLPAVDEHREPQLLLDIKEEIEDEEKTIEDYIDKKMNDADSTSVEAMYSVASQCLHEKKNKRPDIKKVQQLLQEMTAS
Put plainly: Selectivity interaction (KinomeScan (DiscoverX)) EUB0001619a IRAK4. The note with it: at 1 µM.

For assay [3], the target named is Mitogen-activated protein kinase kinase kinase kinase 4 (Homo sapiens, UniProt O95819). Put plainly: Selectivity interaction (KinomeScan (DiscoverX)) EUB0000695a MAP4K4. The note with it: at 100 nM.
Mitogen-activated protein kinase kinase kinase kinase 4, sequence (O95819 2-1239 limits assumed): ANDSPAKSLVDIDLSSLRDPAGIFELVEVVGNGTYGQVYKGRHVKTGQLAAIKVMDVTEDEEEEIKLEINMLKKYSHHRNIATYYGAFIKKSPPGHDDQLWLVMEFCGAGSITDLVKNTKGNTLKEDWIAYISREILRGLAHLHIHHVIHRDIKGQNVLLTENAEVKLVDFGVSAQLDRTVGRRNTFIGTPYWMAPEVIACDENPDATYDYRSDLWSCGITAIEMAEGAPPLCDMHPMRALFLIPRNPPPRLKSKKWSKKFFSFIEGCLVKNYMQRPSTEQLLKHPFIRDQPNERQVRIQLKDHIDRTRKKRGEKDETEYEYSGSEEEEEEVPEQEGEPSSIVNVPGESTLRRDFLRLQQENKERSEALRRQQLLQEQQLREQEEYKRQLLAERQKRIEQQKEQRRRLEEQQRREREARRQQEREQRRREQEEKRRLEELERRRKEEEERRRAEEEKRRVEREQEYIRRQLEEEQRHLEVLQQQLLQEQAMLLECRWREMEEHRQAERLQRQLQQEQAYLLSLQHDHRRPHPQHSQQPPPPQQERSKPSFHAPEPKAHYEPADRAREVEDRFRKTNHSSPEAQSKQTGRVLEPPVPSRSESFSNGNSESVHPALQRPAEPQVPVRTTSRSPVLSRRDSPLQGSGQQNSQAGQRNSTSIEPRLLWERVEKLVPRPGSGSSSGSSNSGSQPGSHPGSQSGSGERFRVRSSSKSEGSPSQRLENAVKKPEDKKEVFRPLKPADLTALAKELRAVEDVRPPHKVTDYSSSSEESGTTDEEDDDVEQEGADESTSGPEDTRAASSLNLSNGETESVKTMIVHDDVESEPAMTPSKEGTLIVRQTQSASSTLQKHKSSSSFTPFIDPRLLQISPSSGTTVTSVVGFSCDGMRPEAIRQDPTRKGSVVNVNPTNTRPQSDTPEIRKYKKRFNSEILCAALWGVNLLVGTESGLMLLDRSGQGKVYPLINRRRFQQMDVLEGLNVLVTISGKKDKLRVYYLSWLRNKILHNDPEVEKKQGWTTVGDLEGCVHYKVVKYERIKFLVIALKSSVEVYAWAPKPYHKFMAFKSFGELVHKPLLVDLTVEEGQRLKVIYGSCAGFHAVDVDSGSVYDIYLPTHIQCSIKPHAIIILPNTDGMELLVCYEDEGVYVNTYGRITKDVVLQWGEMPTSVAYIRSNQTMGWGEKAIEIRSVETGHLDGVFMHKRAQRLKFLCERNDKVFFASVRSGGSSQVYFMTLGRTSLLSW
In assay [4] the target is Tyrosine-protein kinase Fyn (Homo sapiens) (UniProt P06241). The following applies: at 10 µM.
Tyrosine-protein kinase Fyn (Homo sapiens), sequence (P06241 2-537 limits assumed): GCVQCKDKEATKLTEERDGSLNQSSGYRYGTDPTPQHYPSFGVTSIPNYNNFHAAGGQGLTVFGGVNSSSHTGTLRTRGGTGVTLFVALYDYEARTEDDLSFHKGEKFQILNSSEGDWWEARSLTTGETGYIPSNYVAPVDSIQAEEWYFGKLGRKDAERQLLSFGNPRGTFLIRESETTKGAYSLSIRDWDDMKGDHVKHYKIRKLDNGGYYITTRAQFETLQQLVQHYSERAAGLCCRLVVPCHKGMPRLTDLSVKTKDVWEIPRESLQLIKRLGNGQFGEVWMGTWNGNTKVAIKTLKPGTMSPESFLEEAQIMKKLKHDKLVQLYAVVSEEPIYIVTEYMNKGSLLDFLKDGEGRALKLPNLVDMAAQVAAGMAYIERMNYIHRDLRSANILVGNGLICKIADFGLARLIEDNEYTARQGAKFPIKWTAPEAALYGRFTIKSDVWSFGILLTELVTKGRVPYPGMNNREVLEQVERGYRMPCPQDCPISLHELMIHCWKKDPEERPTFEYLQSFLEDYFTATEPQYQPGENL
Assay [5] addresses T2, Cyclin-G-associated kinase (Homo sapiens) (UniProt O14976).
T2 sequence (whole entry): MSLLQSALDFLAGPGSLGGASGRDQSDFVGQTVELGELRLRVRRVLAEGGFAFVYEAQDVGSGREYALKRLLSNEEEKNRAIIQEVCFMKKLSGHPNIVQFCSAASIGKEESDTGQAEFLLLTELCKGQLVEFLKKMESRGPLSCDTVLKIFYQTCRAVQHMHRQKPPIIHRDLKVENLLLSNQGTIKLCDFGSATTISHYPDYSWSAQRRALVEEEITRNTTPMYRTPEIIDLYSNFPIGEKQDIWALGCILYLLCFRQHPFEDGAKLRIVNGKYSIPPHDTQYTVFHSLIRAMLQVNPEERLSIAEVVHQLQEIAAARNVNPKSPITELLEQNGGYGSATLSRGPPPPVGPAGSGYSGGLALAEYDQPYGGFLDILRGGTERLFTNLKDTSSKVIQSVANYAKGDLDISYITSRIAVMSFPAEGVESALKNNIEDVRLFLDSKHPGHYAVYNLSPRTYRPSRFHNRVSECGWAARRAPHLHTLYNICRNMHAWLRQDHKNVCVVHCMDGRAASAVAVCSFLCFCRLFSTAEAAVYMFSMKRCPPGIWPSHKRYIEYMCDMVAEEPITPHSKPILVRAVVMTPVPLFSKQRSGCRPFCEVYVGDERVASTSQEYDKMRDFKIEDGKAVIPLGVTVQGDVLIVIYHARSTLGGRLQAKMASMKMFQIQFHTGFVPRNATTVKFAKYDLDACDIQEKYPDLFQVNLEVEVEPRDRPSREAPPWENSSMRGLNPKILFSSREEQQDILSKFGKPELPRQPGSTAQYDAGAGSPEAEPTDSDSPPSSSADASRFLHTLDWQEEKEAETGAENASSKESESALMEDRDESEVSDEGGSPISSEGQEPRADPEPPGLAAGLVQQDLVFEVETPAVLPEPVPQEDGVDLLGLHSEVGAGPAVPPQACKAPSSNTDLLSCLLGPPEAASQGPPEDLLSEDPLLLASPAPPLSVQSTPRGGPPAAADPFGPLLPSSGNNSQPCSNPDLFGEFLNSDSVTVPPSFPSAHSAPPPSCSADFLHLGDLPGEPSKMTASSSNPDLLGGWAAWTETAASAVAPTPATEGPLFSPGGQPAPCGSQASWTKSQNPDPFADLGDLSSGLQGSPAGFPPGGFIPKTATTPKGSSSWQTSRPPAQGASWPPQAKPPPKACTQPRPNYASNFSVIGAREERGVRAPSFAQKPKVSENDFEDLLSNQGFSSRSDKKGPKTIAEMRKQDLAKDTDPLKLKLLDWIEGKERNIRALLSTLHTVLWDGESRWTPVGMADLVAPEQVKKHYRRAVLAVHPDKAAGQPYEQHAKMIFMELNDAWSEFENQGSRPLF
Put plainly: Selectivity interaction (KinomeScan (DiscoverX)) EUB0000045b GAK.

Assay [6] addresses Vascular endothelial growth factor receptor 2 (Homo sapiens, UniProt P35968). In words: Selectivity interaction (CEREP Wide Ligand Profile screen (panel of receptors, ion channels, and transporters)) EUB0001542aTs KDR.
The target in assay [7] is T3, NUAK family SNF1-like kinase 2 (Homo sapiens) (UniProt Q9H093).
T3 sequence (whole entry): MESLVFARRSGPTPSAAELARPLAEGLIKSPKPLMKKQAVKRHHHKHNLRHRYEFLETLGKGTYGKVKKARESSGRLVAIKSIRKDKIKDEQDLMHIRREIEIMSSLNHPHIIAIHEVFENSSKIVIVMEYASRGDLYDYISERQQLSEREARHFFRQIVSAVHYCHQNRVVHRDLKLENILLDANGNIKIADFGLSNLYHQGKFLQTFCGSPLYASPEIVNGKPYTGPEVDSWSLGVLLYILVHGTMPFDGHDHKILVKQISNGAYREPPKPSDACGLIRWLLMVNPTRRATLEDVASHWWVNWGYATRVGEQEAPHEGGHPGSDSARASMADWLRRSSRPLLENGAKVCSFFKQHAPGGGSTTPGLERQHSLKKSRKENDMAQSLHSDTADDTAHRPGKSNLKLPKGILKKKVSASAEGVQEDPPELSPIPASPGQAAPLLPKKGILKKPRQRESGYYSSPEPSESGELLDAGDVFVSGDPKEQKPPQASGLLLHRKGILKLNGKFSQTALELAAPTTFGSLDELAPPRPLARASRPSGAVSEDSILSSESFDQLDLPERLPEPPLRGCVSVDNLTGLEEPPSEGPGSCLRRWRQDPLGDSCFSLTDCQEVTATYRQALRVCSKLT
In words: Selectivity interaction (KinomeScan (DiscoverX)) EUB0000618a NUAK2. The following applies: at 10 µM.

Vascular endothelial growth factor receptor 2, sequence (P35968 whole entry): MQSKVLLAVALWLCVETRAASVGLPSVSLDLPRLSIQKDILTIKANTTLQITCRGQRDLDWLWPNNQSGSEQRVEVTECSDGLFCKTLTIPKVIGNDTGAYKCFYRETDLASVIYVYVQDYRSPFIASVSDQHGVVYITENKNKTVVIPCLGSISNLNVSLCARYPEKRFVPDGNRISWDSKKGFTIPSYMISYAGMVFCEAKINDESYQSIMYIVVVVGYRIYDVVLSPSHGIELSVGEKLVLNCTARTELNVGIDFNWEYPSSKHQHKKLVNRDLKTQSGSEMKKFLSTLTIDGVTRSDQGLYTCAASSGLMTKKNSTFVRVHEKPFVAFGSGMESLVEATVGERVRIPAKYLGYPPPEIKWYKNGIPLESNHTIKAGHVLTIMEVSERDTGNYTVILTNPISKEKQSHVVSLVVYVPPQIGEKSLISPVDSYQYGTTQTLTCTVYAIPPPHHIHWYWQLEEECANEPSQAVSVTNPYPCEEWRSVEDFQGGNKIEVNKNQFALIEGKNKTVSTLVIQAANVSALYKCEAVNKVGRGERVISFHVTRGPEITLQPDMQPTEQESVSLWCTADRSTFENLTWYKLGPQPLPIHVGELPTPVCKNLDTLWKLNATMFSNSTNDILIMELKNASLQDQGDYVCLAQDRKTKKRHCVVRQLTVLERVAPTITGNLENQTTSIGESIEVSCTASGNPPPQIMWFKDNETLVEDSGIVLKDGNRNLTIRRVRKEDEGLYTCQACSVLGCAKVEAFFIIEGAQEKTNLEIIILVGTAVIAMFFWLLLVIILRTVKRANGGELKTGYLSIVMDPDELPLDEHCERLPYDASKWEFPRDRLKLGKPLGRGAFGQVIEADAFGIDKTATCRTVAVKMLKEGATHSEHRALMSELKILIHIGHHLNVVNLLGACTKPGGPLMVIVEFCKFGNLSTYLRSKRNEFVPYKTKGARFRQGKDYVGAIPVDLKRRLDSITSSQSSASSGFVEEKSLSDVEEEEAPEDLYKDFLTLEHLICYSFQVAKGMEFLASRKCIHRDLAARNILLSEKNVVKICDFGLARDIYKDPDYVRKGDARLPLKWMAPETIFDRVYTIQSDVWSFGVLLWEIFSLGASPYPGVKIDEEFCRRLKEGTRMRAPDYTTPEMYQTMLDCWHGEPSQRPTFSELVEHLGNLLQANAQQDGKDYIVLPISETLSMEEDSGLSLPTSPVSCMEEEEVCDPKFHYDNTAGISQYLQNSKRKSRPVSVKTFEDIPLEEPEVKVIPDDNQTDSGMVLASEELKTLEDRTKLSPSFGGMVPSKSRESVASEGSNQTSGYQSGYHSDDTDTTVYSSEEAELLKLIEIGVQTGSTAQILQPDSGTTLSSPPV

Molecule `Cn1cc(-n2cnc3c(NCc4nc5cc(Cl)c(Cl)cc5[nH]4)nc(N4CCOCC4)nc32)cn1` gave a % of inhibition in assay [1] of 12.2%.
Consider `N#Cc1cccc(-c2c[nH]c3ncnc(N4CCOCC4)c23)c1`, for which the % of control in assay [2] is 69%.
As for `Cc1cc(F)c(C(=O)Nc2cccc(-c3nncn3C(C)C)n2)cc1-n1cnc(C2CC2)c1`, the % of control in assay [3] amounted to 100%.
Molecule `Cc1cc([C@@H](C)Nc2ccccc2C(=O)O)c2nc(N3CCOCC3)cc(=O)n2c1` [AZD-6482] returned a % of control in assay [4] of 100%.
In the case of `C=CC(=O)Nc1cc(-n2c(=O)ccc3cnc4ccc(-c5ccc(NS(C)(=O)=O)cc5)cc4c32)ccc1C`, the % of control in assay [5] (at 1 µM) amounted to 74%; in assay [5] (at 10 µM), 23%.
As to `Cn1cc(Nc2nccc(N3CC4CCC(C3)N4C(=O)[C@@H]3CC3(F)F)n2)cn1`, the IC50 in assay [6] was 1600 nM.
The molecule `O[C@H]1CC[C@H](Nc2ncc3nc(Nc4c(F)cc(F)cc4F)n([C@H]4CCOC4)c3n2)CC1` showed a % of control in assay [7] of 52%.
